Assay type in all cases: functional, organism-based
One assay has as its system Escherichia coli. Briefly: Antimicrobial activity against Escherichia coli DMS 10290 at 5 and 10 ug after 24 hrs by agar diffusion method.
The subject of another assay is Saccharomyces cerevisiae. The assay is described as follows: Antimicrobial activity against Saccharomyces cerevisiae DMS 1333 at 5 and 10 ug after 24 hrs by agar diffusion method.
The next assay deals with Bacillus subtilis. Briefly: Antimicrobial activity against Bacillus subtilis DMS 2109 at 5 and 10 ug after 24 hrs by agar diffusion method.

Each structure is given as a SMILES string. Activity calls are given as the source filed them. No cut-off for these calls is given here.

`Cc1cc2ccc3c(=O)c(C)c(C)oc3c2cn1`: the outcome in the assay on Escherichia coli and in the assay on Saccharomyces cerevisiae was inactive.

`COC1(C)Cc2ccc3c(=O)c(C)c(C)oc3c2CO1` (stereo not drawn): the outcome in the assay on Escherichia coli, in the assay on Saccharomyces cerevisiae and in the assay with Bacillus subtilis was inactive.

Take `COC1OC(C)=Cc2ccc3c(=O)c(C)c(C)oc3c21` (stereo not drawn): the result in the assay on Escherichia coli, in the assay with Saccharomyces cerevisiae and in the assay with Bacillus subtilis was inactive.

(Values after ChEMBL document CHEMBL1158887, “Novel chromone derivatives from the fungus Aspergillus versicolor isolated from the marine sponge Xestospongia exigua” (J Nat Prod, 2003).)
